Assay: xn = mol fraction of the nth substance listed
Details: 101 kPa, Liquid; for mass density: Vibrating tube method; for electrical conductivity: Conductivity Meter Jenco 3107; for viscosity: Cone and plate viscometry

CC1COC(=O)O1 (centres undefined) [4-methyl-1,3-dioxolan-2-one] + CCCC[n+]1ccn(C)c1.O=S(=O)([N-]S(=O)(=O)C(F)(F)F)C(F)(F)F
Details	electrical conductivity [S/m]	mass density [kg/m3]	viscosity [mPa·s]
308.15 K, x2 = 0.7989	–	1410.26	–
308.15 K, x2 = 0.898	–	1418.04	–
313.15 K, x2 = 0	–	–	2.05
313.15 K, x2 = 0.0146	–	1194.33	–
313.15 K, x2 = 0.0296	–	1205.22	–
313.15 K, x2 = 0.0453	–	1215.97	–
313.15 K, x2 = 0.0502	1.14	–	–
313.15 K, x2 = 0.0616	–	1226.46	–
313.15 K, x2 = 0.0732	–	1233.52	–
313.15 K, x2 = 0.0997	–	1248.42	–
313.15 K, x2 = 0.1	–	–	3.21
313.15 K, x2 = 0.1004	1.44	–	–
313.15 K, x2 = 0.2001	1.66	–	–
313.15 K, x2 = 0.2002	–	–	4.59
313.15 K, x2 = 0.2004	–	1293.64	–
313.15 K, x2 = 0.3002	1.52	–	–
313.15 K, x2 = 0.3007	–	–	6.34
313.15 K, x2 = 0.3081	–	1328.25	–
313.15 K, x2 = 0.3998	–	–	8.29
313.15 K, x2 = 0.4004	–	1350.46	–
313.15 K, x2 = 0.4005	1.4	–	–
313.15 K, x2 = 0.5004	–	–	10.77
313.15 K, x2 = 0.5007	1.25	–	–
313.15 K, x2 = 0.5021	–	1369.47	–
313.15 K, x2 = 0.5839	–	1381.78	–
313.15 K, x2 = 0.6002	–	–	13.57
313.15 K, x2 = 0.6003	1.11	–	–
313.15 K, x2 = 0.6902	–	1394.71	–
313.15 K, x2 = 0.6979	–	–	16.55
313.15 K, x2 = 0.6989	0.971	–	–
313.15 K, x2 = 0.7989	–	1405.28	–
313.15 K, x2 = 0.8001	0.85	–	–
313.15 K, x2 = 0.8015	–	–	20.47
313.15 K, x2 = 0.8959	0.73	–	23.63
313.15 K, x2 = 0.898	–	1413.08	–
318.15 K, x2 = 0	–	–	1.9
318.15 K, x2 = 0.0146	–	1188.81	–
318.15 K, x2 = 0.0296	–	1199.72	–
318.15 K, x2 = 0.0453	–	1210.48	–
318.15 K, x2 = 0.0502	1.23	–	–
318.15 K, x2 = 0.0616	–	1220.94	–
318.15 K, x2 = 0.0732	–	1228.04	–
318.15 K, x2 = 0.0997	–	1243.05	–
318.15 K, x2 = 0.1	–	–	2.89
318.15 K, x2 = 0.1004	1.59	–	–
318.15 K, x2 = 0.2001	1.81	–	–
318.15 K, x2 = 0.2002	–	–	4.17
318.15 K, x2 = 0.2004	–	1288.34	–
318.15 K, x2 = 0.3002	1.68	–	–
318.15 K, x2 = 0.3007	–	–	5.68
318.15 K, x2 = 0.3081	–	1323.02	–
318.15 K, x2 = 0.3998	–	–	7.31
318.15 K, x2 = 0.4004	–	1345.37	–
318.15 K, x2 = 0.4005	1.57	–	–
318.15 K, x2 = 0.5004	–	–	9.37
318.15 K, x2 = 0.5007	1.41	–	–
318.15 K, x2 = 0.5021	–	1364.43	–
318.15 K, x2 = 0.5839	–	1376.72	–
318.15 K, x2 = 0.6002	–	–	11.75
318.15 K, x2 = 0.6003	1.26	–	–
318.15 K, x2 = 0.6902	–	1389.72	–
318.15 K, x2 = 0.6979	–	–	14.29
318.15 K, x2 = 0.6989	1.11	–	–
318.15 K, x2 = 0.7989	–	1400.29	–
318.15 K, x2 = 0.8001	0.961	–	–
318.15 K, x2 = 0.8015	–	–	17.5
318.15 K, x2 = 0.8959	0.828	–	20.04
318.15 K, x2 = 0.898	–	1408.1	–
323.15 K, x2 = 0	–	–	1.78
323.15 K, x2 = 0.0146	–	1183.28	–
323.15 K, x2 = 0.0296	–	1194.23	–
323.15 K, x2 = 0.0453	–	1204.99	–
323.15 K, x2 = 0.0502	1.32	–	–
323.15 K, x2 = 0.0616	–	1215.52	–
323.15 K, x2 = 0.0732	–	1222.56	–
323.15 K, x2 = 0.0997	–	1237.51	–
323.15 K, x2 = 0.1	–	–	2.68
323.15 K, x2 = 0.1004	1.74	–	–
323.15 K, x2 = 0.2001	1.97	–	–
323.15 K, x2 = 0.2002	–	–	3.81
323.15 K, x2 = 0.2004	–	1283	–
323.15 K, x2 = 0.3002	1.85	–	–
323.15 K, x2 = 0.3007	–	–	5.14
323.15 K, x2 = 0.3081	–	1317.8	–
323.15 K, x2 = 0.3998	–	–	6.58
323.15 K, x2 = 0.4004	–	1340.2	–
323.15 K, x2 = 0.4005	1.74	–	–
323.15 K, x2 = 0.5004	–	–	8.34
323.15 K, x2 = 0.5007	1.57	–	–
323.15 K, x2 = 0.5021	–	1359.32	–
323.15 K, x2 = 0.5839	–	1371.65	–
323.15 K, x2 = 0.6002	–	–	10.31
323.15 K, x2 = 0.6003	1.41	–	–
323.15 K, x2 = 0.6902	–	1384.62	–
323.15 K, x2 = 0.6979	–	–	12.41
323.15 K, x2 = 0.6989	1.25	–	–
323.15 K, x2 = 0.7989	–	1395.23	–
323.15 K, x2 = 0.8001	1.1	–	–
323.15 K, x2 = 0.8015	–	–	15.15
323.15 K, x2 = 0.8959	0.93	–	17.34
323.15 K, x2 = 0.898	–	1403.08	–
328.15 K, x2 = 0	–	–	1.63
328.15 K, x2 = 0.0502	1.41	–	–
328.15 K, x2 = 0.1	–	–	2.47
328.15 K, x2 = 0.1004	1.89	–	–
328.15 K, x2 = 0.2001	2.12	–	–
328.15 K, x2 = 0.2002	–	–	3.45
328.15 K, x2 = 0.3002	2.06	–	–
328.15 K, x2 = 0.3007	–	–	4.68
328.15 K, x2 = 0.3998	–	–	5.94
328.15 K, x2 = 0.4005	1.92	–	–
328.15 K, x2 = 0.5004	–	–	7.41
328.15 K, x2 = 0.5007	1.74	–	–
328.15 K, x2 = 0.6002	–	–	9.19
328.15 K, x2 = 0.6003	1.57	–	–
328.15 K, x2 = 0.6979	–	–	11
328.15 K, x2 = 0.6989	1.4	–	–
328.15 K, x2 = 0.8001	1.25	–	–
328.15 K, x2 = 0.8015	–	–	13.3
328.15 K, x2 = 0.8959	1.07	–	15.12
333.15 K, x2 = 0	–	–	1.54
333.15 K, x2 = 0.1	–	–	2.31
333.15 K, x2 = 0.2002	–	–	3.22
333.15 K, x2 = 0.3007	–	–	4.26
333.15 K, x2 = 0.3998	–	–	5.37
333.15 K, x2 = 0.5004	–	–	6.66
333.15 K, x2 = 0.6002	–	–	8.17
333.15 K, x2 = 0.6979	–	–	9.7
333.15 K, x2 = 0.8015	–	–	11.7
333.15 K, x2 = 0.8959	–	–	13.26

Source: the NIST ThermoML archive (doi:10.1016/j.jct.2013.08.034)
